Measurements from patent US7081538B1, “Substituted isoxazolines and their use as antibacterial agents” (priority 1999, dated 2006).
Values after ≈ are worked out from the molar mass of the structure shown.

Tests used:
Format in all cases: cell-based
[1] = system: Staphylococcus aureus Oxford; assay: MIC by agar-dilution, Staphylococcus aureus Oxford; conditions: inoculum 10^4 CFU/spot, 37° C., 24 hours
Protocol: (§1) The following results were obtained on a standard in-vitro test system. The activity is described in terms of the minimum inhibitory concentration (MIC) determined by the agar-dilution technique with an inoculum size of 10^4 CFU/spot. Typically, compounds are active in the range 0.01 to 256 μg/ml.
(§2) Staphylococci were tested on agar, using an inoculum of 10^4 CFU/spot and an incubation temperature of 37° C. for 24 hours—standard test conditions for the expression of methicillin resistance.

[2] = system: Staphylococcus aureus Novb. Res (Novobiocin resistant); assay: MIC by agar-dilution, Staphylococcus aureus Novb. Res; conditions: inoculum 10^4 CFU/spot, 37° C., 24 hours
Protocol: as §1, §2

[3] = system: Staphylococcus aureus MRQR (methicillin resistant quinolone resistant); assay: MIC by agar-dilution, Staphylococcus aureus MRQR; conditions: inoculum 10^4 CFU/spot, 37° C., 24 hours
Protocol: as §1, §2

[4] = system: Coagulase Negative Staphylococci MS (methicillin sensitive); assay: MIC by agar-dilution, Coagulase Negative Staphylococci MS; conditions: inoculum 10^4 CFU/spot, 37° C., 24 hours
Protocol: as §1, §2

[5] = system: Coagulase Negative Staphylococci MR (methicillin resistant); assay: MIC by agar-dilution, Coagulase Negative Staphylococci MR; conditions: inoculum 10^4 CFU/spot, 37° C., 24 hours
Protocol: as §1, §2

[6] = system: Streptococcus pyogenes C203; assay: MIC by agar-dilution, Streptococcus pyogenes C203; conditions: agar with 5% defibrinated horse blood, 10^4 CFU/spot, 37° C., 5% carbon dioxide, 48 hours
Protocol: as §1
(§3) Streptococci and enterococci were tested on agar supplemented with 5% defibrinated horse blood, an inoculum of 10^4 CFU/spot and an incubation temperature of 37° C. in an atmosphere of 5% carbon dioxide for 48 hours—blood is required for the growth of some of the test organisms.

Enterococcus faecalis = assay: MIC by agar-dilution, Enterococcus faecalis; conditions: agar with 5% defibrinated horse blood, 10^4 CFU/spot, 37° C., 5% carbon dioxide, 48 hours
Protocol: as §1, §3

Bacillus subtilis = assay: MIC by agar-dilution, Bacillus subtilis; conditions: inoculum 10^4 CFU/spot
Protocol: as §1

O=C(CO)N1CC=C(c2ccc(C3=NOC(CNc4ccon4)C3)cc2)CC1 (racemic) [Example 1, (5RS)-3-(4-(1-Hydroxyacetyl-1,2,5,6-tetrahydropyrid-4-yl)phenyl)-5-(3-isoxazolylaminomethyl)-4,5-dihydro-isoxazole]
MIC [1]: 2 µg/mL (≈ 5.23 µM) | MIC [2]: 4 µg/mL (≈ 10.5 µM) | MIC [3]: 4 µg/mL (≈ 10.5 µM) | MIC [4]: 1 µg/mL (≈ 2.61 µM) | MIC [5]: 2 µg/mL (≈ 5.23 µM) | MIC [6]: 8 µg/mL (≈ 20.9 µM) | MIC (Enterococcus faecalis): 8 µg/mL (≈ 20.9 µM) | MIC (Bacillus subtilis): 1 µg/mL (≈ 2.61 µM)
